Source: patent US20220364989A1, “METHOD FOR MEASURING PHOTOTOXICITY OR PHOTOALLERGY AND REAGENT FOR USE THEREIN” (FUJIFILM Corporation, priority 2018, published 2022)

Legend:
[1] = reported in References 1 to 3; cited from earlier work
[2] = reported in References 1 and 2; cited from earlier work
[3] = NAC depletion under and without ultraviolet irradiation, HPLC with UV detection (281 nm); conditions: for NAC Depletion (%) without light irradiation: 25° C. 24 hours light-shielded; for NAC Depletion (%) without light irradiation / NAC Depletion (%) under light irradiation: test substance solution 1 mmol/L; for NAC Depletion (%) under light irradiation: 2,000 μW/cm^2 for 1 hour then 25° C. 23 hours
[4] = NAL depletion under and without ultraviolet irradiation, HPLC with UV detection (281 nm); conditions: for NAL Depletion (%) without light irradiation: 25° C. 24 hours light-shielded; for NAL Depletion (%) without light irradiation / NAL Depletion (%) under light irradiation: test substance solution 1 mmol/L; for NAL Depletion (%) under light irradiation: 2,000 μW/cm^2 for 1 hour then 25° C. 23 hours
[5] = Average score of NAC and NAL depletion and phototoxicity or photoallergy determination, UV detection; conditions: for Average score (%) without light irradiation / Average score (%) under light irradiation: average of NAC and NAL depletion
[6] = Average score of NAC and NAL depletion and phototoxicity or photoallergy determination, fluorescence detection; conditions: for Average score (%): without light irradiation
[7] = NAC depletion under and without ultraviolet irradiation, HPLC with fluorescence detection (284 nm excitation, 333 nm fluorescence); conditions: for NAC Depletion (%): without light irradiation
[8] = NAL depletion under and without ultraviolet irradiation, HPLC with fluorescence detection (284 nm excitation, 333 nm fluorescence); conditions: for NAL Depletion (%): without light irradiation
[9] = without light irradiation, single compound
[10] = average of NAC and NAL depletion
[11] = 25° C. 24 hours light-shielded, test substance solution 1 mmol/L
[12] = 2,000 μW/cm^2 for 1 hour then 25° C. 23 hours, test substance solution 1 mmol/L

Molecule | In vivo phototoxicity [1] | In vivo photoallergy [2] | Difference in depletion (under light irradiation - without light irradiation) NAC (%) [3] [%] | NAC Depletion (%) without light irradiation [3] [%] | NAC Depletion (%) under light irradiation [3] [%] | NAL Depletion (%) without light irradiation [4] [%] | NAL Depletion (%) under light irradiation [4] [%] | Average score (%) without light irradiation [5] [%] | Difference in depletion (under light irradiation - without light irradiation) Average score (%) ([6]; single compound) | Average score (%) ([6]; single compound) | Difference in depletion (under light irradiation - without light irradiation) NAC (%) ([7]; single compound) | NAC Depletion (%) ([7]; single compound) | Difference in depletion (under light irradiation - without light irradiation) NAL (%) ([8]; single compound) | NAL Depletion (%) ([8]; single compound) | Difference in depletion (under light irradiation - without light irradiation) NAL (%) [4] [%] | Difference in depletion (under light irradiation - without light irradiation) Average score (%) [5] [%] | Average score (%) under light irradiation [5] [%] | other results
CC(CN1c2ccccc2Sc2ccccc21)N(C)C.Cl (racemic) [compound 14] | Positive | Positive | 61.9 | 27.6 | 89.5 | 3.5 | −438.6 | 15.6 | 41.5 | 12.2 | 76.4 | 23.6 | 6.6 | 0.8 |  |  |  | 
Cc1ccc(C=C2C(=O)C3(C)CCC2C3(C)C)cc1 (racemic) [compound 39] | Negative | Negative | 3.6 | 0.7 | 4.3 | 0.0 | 0.0 | 0.3 | 2.0 | 0.1 | 3.9 | 0.2 | 0.0 | 0.0 | 0.0 | 1.8 | 2.1 | 
COc1c2ccoc2cc2oc(=O)ccc12 [compound 31] | Positive | Negative | 89.6 | 1.1 | 90.6 | 0.2 | 8.4 | 0.6 | 48.9 | 0.1 | 91.9 | 0.0 | 6.0 | 0.2 | 8.2 | 48.9 | 49.5 | 
CC(C)OC(=O)C(C)(C)Oc1ccc(C(=O)c2ccc(Cl)cc2)cc1 [compound 38] | Positive |  |  | 0.0 | −1178.7 | 0.0 | 40.7 | 0.0 | 67.8 | 0.0 | 98.7 | 0.0 | 37.0 | 0.0 | 40.7 |  |  | 
CC1(C)SC2C(NC(=O)Cc3ccccc3)C(=O)N2C1C(=O)O (centres unmarked) [compound 44] | Negative | Negative | 1.5 | 1.4 | 2.8 | 1.9 | 1.6 | 1.6 | 0.9 | 1.0 | 1.3 | 1.1 | 0.4 | 0.8 | −0.2 | 0.6 | 2.2 | 
CC(C)O [compound 47] | Negative | Negative | 1.7 | 0.0 | 1.7 | 1.5 | 0.3 | 0.8 | −0.1 | 0.3 | −0.5 | 0.5 | 0.3 | 0.0 | −1.2 | 0.2 | 1.0 | 
CCO [compound 50] | Negative | Negative | 0.4 | 0.0 | 0.4 | 1.3 | 0.0 | 0.6 | −0.1 | 0.1 | −0.3 | 0.3 | 0.0 | 0.0 | −1.3 | −0.5 | 0.2 | 
C[S+](C)[O-] [compound 58] | Negative | Negative |  |  |  |  |  |  |  |  |  |  |  |  |  |  |  | Difference in depletion (under light irradiation - without light irradiation) NAC (%) ([3]; single compound): 0.7%; NAC Depletion (%) [3, 9]: 0.0%; Difference in depletion (under light irradiation - without light irradiation) NAL (%) ([4]; single compound): −0.2%; NAL Depletion (%) [4, 9]: 0.2%; Difference in depletion (under light irradiation - without light irradiation) Average score (%) ([5]; single compound): 0.3%; Average score (%) [5, 9]: 0.1%; Difference in depletion (under light irradiation - without light irradiation) Average score (%) [6]: 0.1%; Average score (%) under light irradiation [6, 10]: 0.1%; Average score (%) without light irradiation [6, 10]: 0.0%; Difference in depletion (under light irradiation - without light irradiation) NAC (%) [7]: 0.1%; NAC Depletion (%) without light irradiation [7, 11]: 0.0%; NAC Depletion (%) under light irradiation [7, 12]: 0.2%; Difference in depletion (under light irradiation - without light irradiation) NAL (%) [8]: 0.0%; NAL Depletion (%) without light irradiation [8, 11]: 0.0%; NAL Depletion (%) under light irradiation [8, 12]: 0.0%
Tetrachlorosalicylanilide [compound 12] | Positive | Positive |  | 66.8 | −200.9 | 4.2 | 82.1 | 35.5 | 60.4 | 31.5 | 39.4 | 58.0 | 81.5 | 5.0 | 77.9 |  |  | 
